Literature values, collected in US12508269B2, “Parenteral dosage form of carboplatin” (priority 2018, dated 2025).

SMILES: [NH2][Pt]1([NH2])[O]C(=O)C2(CCC2)C(=O)[O]1 [carboplatin, diammine [1,1-cyclobutanedicarboxylato(2-)-0, 0′]]
- time for which reconstituted or diluted aqueous solutions were stable (Myres et al, refrigeration in the dark or room temperature exposed to fluorescent light): seven
- time for which reconstituted solutions are stable (pack insert of Paraplatin and references): 8 h
